{"source": "patent US11059845B2", "about": "“Immune stimulating macrolides” (ISR IMMUNE SYSTEM REGULATION HOLDING AB (PUBL), priority 2017, dated 2021)", "key": {"[1]": {"test_system": "PBMCs", "assay": "Supernatant IL-10 sandwich ELISA", "type": "cell-based, human", "settings": "100 U/mL IL-2, 48 h and 7 days", "experimental": "Supernatant IL-10 was measured with a standard sandwich ELISA (all antibodies from BD Biosciences) after 48 hours and 7 days incubation with 2.5 μM of compound 1 and 100 U/mL IL-2 (Miltenyi Biotechnologies) in complete RPMI media, 37° C., 5% CO2\nSupernatant IL-10 was measured with a standard sandwich ELISA (all antibodies from BD Biosciences) after 48 hours and 7 days incubation with 2.5 uM of compound 1 and 100 U/mL IL-2 (Miltenyi Biotechnologies) in complete RPMI media, 37° C., 5% CO2."}, "[2]": {"test_system": "PBMCs", "assay": "Cytokine/chemokine secretion from PBMCs (cytometric bead assay)", "type": "cell-based, human", "settings": "2 days", "experimental": "(§1) FIG. 11: Chemokine RANTES secretion (as measured by cytometric bead assay) from PBMC or macrophages stimulated with indicated compound for 48 h.\n(§2) FIG. 12: IL12p70 secretion (as measured by cytometric bead assay) from PBMC or macrophages stimulated with indicated compound for 48 h.\n(§3) FIG. 13: IL1b secretion (as measured by cytometric bead assay) from PBMC, macrophages or CD4 T cells stimulated with indicated compound for 48 h.\n(§4) Study 10: PBMCs and macrophages where exposed to compounds 1 or 2 for 2 days (FIG. 11).\n(§5) Study 11: PBMCs and macrophages where exposed to compounds 1 and 2 for 2 days.\n(§6) Study 12: PBMCs, macrophages and CD4+ T cells where exposed to compounds 1 and 2 for 2 days."}, "[3]": {"test_system": "T cells in PBMC", "assay": "T cell proliferation with IL-2, Cell Trace Violet, flow cytometry", "type": "cell-based, human", "settings": "6 days, in the presence of IL-2", "experimental": "FIG. 7. CD4 T cell proliferation after 6 days stimulation with compound 1, measured with proliferation dye Celltrace violet (Invitrogen) and flow cytometry. Untreated cells (UNT) or compound A were used as controls.\nStudy 6: PBMC were stimulated with compound 1 and cultured in RPMI media for 6 days in the presence of IL-2 (Miltenyi Biotechnologies) and Cell Trace Violet Dye (Invitrogen). Proliferation was measured with flow cytometry."}, "[4]": {"test_system": "C57bl/6 mice", "assay": "MHC class I expression on CD11b+ splenocytes of mice after i.v. injection", "type": "in vivo, mouse", "settings": "spleen 24 h later", "experimental": "FIG. 15: % MHC class I high CD11b+ cells in spleen of 3 individual C57bl/6 mice injected 24 h previously with indicated compound. MHC class I and CD11 b expression was measured by flow cytometry.\nStudy 14: Compound 1 or A was administered i.v. to C57bl/6 mice."}, "[5]": {"test_system": "CMV specific CD8+ T cells", "assay": "CMV cultures: phenotype of CMV specific CD8+ T cells", "type": "cell-based, human", "settings": "PBMCs from CMV infected donors, CMV antigen, 6 days", "experimental": "Human peripheral blood mononuclear cells (PBMCs) were purified from healthy CMV positive donors with Ficoll-Paque density centrifugation. The PBMC were labeled with 5 μM celltrace violet (Invitrogen) in PBS for 15 minutes and then washed with complete cell culture medium. The labeled PBMC was cultured in the presence of a peptide library spanning the CMV pp65 protein (1 μg peptide/ml, JPT) in AIM-V media (Invitrogen) supplemented with L-glutamine, Sodium pyruvate (Sigma), 10% fetal bovine serum, 100 μg/mL penicillin and 100 μg/mL streptomycin (Hyclone) for 6-8 days in 37° C., 5% CO2. Cell proliferation was assessed with flow cytomtery using a BD FACS Canto II flow cytometer.\nStudy 7: CMV virus specific T cell proliferation was also affected by compound 1. […] CD127 is crucial for T cell homeostasis, differentiation and function, and reduced expression correlates with disease severity in HIV and other chronic viral diseases (Crawley et al. 2012)."}, "[6]": {"test_system": "CD4+ T cells", "assay": "IL-1beta secretion from CD4+ T cells (cytometric bead assay)", "type": "cell-based, human", "settings": "2 days", "experimental": "as §3, §6"}, "[7]": {"test_system": "C57bl/6 mice", "assay": "CD25 expression in blood of mice after i.v. injection", "type": "in vivo, mouse", "settings": "highest dose of 5 mg/kg, 24 h", "experimental": "FIG. 14: % CD25 high cells in blood of C57bl/6 mice injected 24 h previously with indicated dose of compound 1. CD25 expression was measured by flow cytometry.\nStudy 13: Compound 1 was administered i.v. to C57bl/6 mice at 0.165 mg/kg to 5 mg/kg. CD25+ cell abundance was increased in animals receiving the highest dose of 5 mg/kg (FIG. 14), as was body weight in the same group (not shown)."}, "[8]": {"test_system": "Bifidobacterium longum subsp. infantis", "assay": "Minimum Inhibitory Concentration (MIC) assay", "type": "cell-based", "settings": "anaerobic, 37° C., 18 h", "experimental": "(§7) The bioactivity of macrolide compounds against 4 strains of common gut bacteria (Escherichia coli, Streptococcus salivarius subsp. salivarius, Lactobacillus casei and Bifidobacterium longum subsp. infantis) and common mammalian skin isolate Micrococcus luteus, was assessed using the Minimum Inhibitory Concentration (MIC) assay. Bacterial strains were purchased from DSMZ (Brunswick, Germany) except M. luteus which was obtained from NCIMB, and stored in 20% glycerol at −80° C. Stock solutions (100% DMSO) of positive controls (azithromycin and erythromycin), and of test compounds 1 and 2 were diluted in broth to working stock concentrations of 256 μg/ml (final assay testing concentration range 128 μg/ml to 0.00391 μg/ml). Stock solutions of all other compounds were diluted in broth to working stock concentrations of 128 μg/ml (final assay testing concentration range 64 μg/ml to 0.00195 μg/ml). Bacterial strains were cultivated in appropriate broth in an anaerobic chamber at 37° C., except for M. luteus which was incubated aerobically at 37° C. 18 h cultures were diluted in broth to an OD595 of 0.1 and then further diluted 1:10. In 96-well plates, in duplicate, 200 μl working stock of test compound was transferred to well 1 and serially diluted (1:2) in broth. 100 μl bacterial suspension was aliquoted into each well and mixed thoroughly. Appropriate sterility controls were included and plates were incubated in an anaerobic chamber, or aerobically (M. luteus) at 37° C. for 18 h. The MIC was determined to be the concentration of test compound in the first well with no visible growth."}, "[9]": {"test_system": "Lactobacillus casei", "assay": "Minimum Inhibitory Concentration (MIC) assay", "type": "cell-based", "settings": "Lacticaseibacillus casei; anaerobic, 37° C., 18 h", "experimental": "as §7"}, "[10]": {"test_system": "Escherichia coli", "assay": "Minimum Inhibitory Concentration (MIC) assay", "type": "cell-based", "settings": "anaerobic, 37° C., 18 h", "experimental": "as §7"}, "[11]": {"test_system": "Micrococcus luteus", "assay": "Minimum Inhibitory Concentration (MIC) assay", "type": "cell-based", "settings": "aerobic, 37° C., 18 h", "experimental": "as §7"}, "[12]": {"test_system": "Streptococcus salivarius subsp. salivarius", "assay": "Minimum Inhibitory Concentration (MIC) assay", "type": "cell-based", "settings": "anaerobic, 37° C., 18 h", "experimental": "as §7"}, "[13]": {"test_system": "Macrophages from healthy donors", "assay": "Cytokine/chemokine secretion from macrophages (cytometric bead assay)", "type": "cell-based, human", "experimental": "FIG. 10: Interferon-gamma secretion (as measured by cytometric bead assay) from macrophages stimulated with indicated compound for 48 h.\nas §1, §2, §3\nStudy 9: Macrophages from healthy donors where exposed to compounds 1 or 2 for 48 hours. […] Compound 1 is therefore able to induce IFN-gamma secretion in macrophages from healthy donors.\nas §4, §5, §6"}}}
{"smiles": "CC[C@H]1OC(=O)[C@H](C)[C@@H](O[C@H]2C[C@@H](N(C)C)[C@H](O)[C@@H](C)O2)[C@H](C)[C@@H](O)[C@](C)(O)C[C@@H](C)CN(C)[C@H](C)[C@@H](O)[C@]1(C)O", "note": "[Compound 1]", "values": [{"measurement": "production of IL-10", "setting": "[1]", "result": "increased production"}, {"measurement": "IL-1beta secretion, PBMCs", "setting": "[2]", "result": "slightly"}, {"measurement": "IL-12p70 secretion, PBMCs", "setting": "[2]", "result": "secreted IL-12p70"}, {"measurement": "expression of RANTES in PBMCs", "setting": "[2]", "result": "twofold upregulation"}, {"measurement": "cytokine driven proliferation profile of T cells", "setting": "[3]", "result": "altered cytokine driven proliferation profile"}, {"measurement": "splenocyte cells (CD11b+) with high MHC I expression", "setting": "[4]", "result": "induced an increase"}, {"measurement": "expression of IL-7 receptor α (CD127) on activated CMV specific CD8+ T cells", "setting": "[5]", "result": "increased expression"}, {"measurement": "IL-1beta secretion, CD4+ T cells", "setting": "[6]", "result": "no IL-1beta was induced"}, {"measurement": "CD25+ cell abundance", "setting": "[7]", "result": "increased"}, {"measurement": "MIC", "setting": "[8]", "result": "> 64", "unit": "µg/mL"}, {"measurement": "MIC", "setting": "[9]", "result": "> 64", "unit": "µg/mL"}, {"measurement": "MIC", "setting": "[10]", "result": "> 64", "unit": "µg/mL"}, {"measurement": "MIC", "setting": "[11]", "result": "> 256", "unit": "µg/mL"}, {"measurement": "MIC", "setting": "[12]", "result": "> 64", "unit": "µg/mL"}, {"measurement": "IL-1beta secretion, macrophages", "setting": "[13]; 2 days", "result": "increased"}, {"measurement": "IL-12p70 secretion, macrophages", "setting": "[13]; 2 days", "result": "secreted IL-12p70"}, {"measurement": "expression of RANTES in macrophages", "setting": "[13]; 2 days", "result": "induced a high expression"}, {"measurement": "IFN-gamma secretion, macrophages", "setting": "[13]; 48 hours", "result": "secreted IFN-gamma"}]}
